≈ marks a conversion by molar mass, not a printed value.
Test system: P-388 mouse leukemia cells
Assay: P388 mouse leukemia cell cytotoxicity assay (24-well plate screening / tube assay)
Assay type: cell-based
Conditions: for concentration inhibiting cell growth relative to the concentration required for inhibition by chondrillin (composition 1): 50% inhibition stated for II/2 and III/3, P388 mouse leukemia cells; for IC50: P388, P-388 mouse leukemia cells, 48 hours incubation, 5% CO2, read-out: P388 IC50, Inhibiting concentration 50% of cell growth; for cytotoxic in vitro against P-388 murine leukemia cells: result in words; for antitumor activity ranking among the compositions tested: Table 2, P388, result in words
Excerpt: The following assay method was utilized to illustrate the antitumor effectiveness of the compositions of Formulae II - VI corresponding to compositions 2-5 of the examples. Data is also provided for the chondrillin composition (1) which has also been isolated according to the process of the invention.
388 MOUSE LEUKEMIA CELL CYTOXICITY ASSAY 24-WELL PLATE SCREENING ASSAY AND TUBE ASSAY PROTOCOL
Media--Dulbeccos with glucose and pyruvate (Biologos, Inc) with 10% horse serum, (Biologos, Inc) and 1.0 ug/ml gentamicin (Gibco).
Cells - P-388 mouse leukemia cells (American Type Culture Collection) in media at a concentration of 5×10^4 W cells/ml Sterile 24-well culture plates (Nunc) for screening or 12×75 mm glass culture tubes (Becton-Dickinson) for tube assay. Microdispenser with 1 to 5 ul increments (Drummond Scientific Co. Broomall PA).
Finnpipette with 5 to 50 μl increments and Finnpipette with 50 to 200 μl increments.
1. A sample of the composition to be assayed is added to each well or tube in an amount of from 200 ug/ml and 100 ug/ml for screening. For DDC of known active compounds use log concentrations from 100 ug/ml to 0.01 ug/ml for range-finding assay; when range has been determined, use five concentrations between highest and lowest active concentrations.
2. Add 2.0 ml of 5×10^4 cell suspension in media to each well or tube. Tubes are loosely covered with parafilm.
3 Incubate in 5% CO2 incubator 48 hours.
4. Visually read plates with inverted microscope, comparing with solvent control. Assign activity as follows:
Repeat all positive samples using tube assay.
5. For Tube assays--Mix tube well on vortex and remove 0.5 ml aliquot and add to 9.5 ml of diluent fluid (Isoton - Coulter) in Accuvette (Coulter) and mix well by inversion immediately before counting, taking care not to produce excessive bubbles. Count on Coulter Counter (Counter is set to count 0.5 ml of the solution; therefore counts may be converted to cell/ml in original assay tube by multiplying count by 40.
Positive control--Vinblastine or Vincristine in aqueous solution.
Always run a solvent control in duplicate in the last two wells of each plate or four tubes for each rack of 72 or less tubes. Also run four wells or tubes with media and cells only per run of plates or tubes. When using volumes of aqueous solutions greater than 200 μl, dry sample and bring up to desired concentration in media.
Compositions 1-5 of formulae I/1; II/2; III/3; IV/4; and V/5 are cytotoxic in vitro against P-388 murine leukemia cells.

In the case of `CC=CC=CCCCCCCCCC[C@]1(OC)C=C[C@@H](CC(=O)OC)OO1` (relative stereo) [Composition IV/4], the “concentration inhibiting cell growth relative to the concentration required for inhibition by chondrillin (composition 1)” value is reported as 2%, the IC50 is reported as 0.1 µg/mL (≈ 0.263 µM) and the “cytotoxic in vitro against P-388 murine leukemia cells” value is reported as “cytotoxic”.
`CCCCCCCCCCCCCCCCC1(OC)C=CC(CC(=O)OC)OO1` (stereo not shown) [Composition I/1, chondrillin, reference compound] was tested, and the IC50 was 5 µg/mL (≈ 12.1 µM) and the “cytotoxic in vitro against P-388 murine leukemia cells” value was “cytotoxic”.
In the case of `CC=CC=CCCCCCCC[C@]1(OC)C=C[C@@H](CC(=O)OC)OO1` (relative stereo) [Composition II/2], the “concentration inhibiting cell growth relative to the concentration required for inhibition by chondrillin (composition 1)” value is reported as 1%, the IC50 is reported as 0.05 µg/mL (≈ 0.142 µM) and the “antitumor activity ranking among the compositions tested” value is reported as “greatest antitumor activity of the compositions tested”. For the same molecule, the “cytotoxic in vitro against P-388 murine leukemia cells” value was “cytotoxic”.
For `CC=CCCCCCCCCC[C@]1(OC)C=C[C@@H](CC(=O)OC)OO1` (relative stereo) [Composition V/5], the “concentration inhibiting cell growth relative to the concentration required for inhibition by chondrillin (composition 1)” value was 2%, the IC50 was 0.1 µg/mL (≈ 0.282 µM) and the “cytotoxic in vitro against P-388 murine leukemia cells” value was “cytotoxic”.
`CCCCCCCCCCCC[C@]1(OC)C=C[C@@H](CC(=O)OC)OO1` (relative stereo) [Composition III/3] was tested, and the “concentration inhibiting cell growth relative to the concentration required for inhibition by chondrillin (composition 1)” value was 1%, the IC50 was 0.05 µg/mL (≈ 0.14 µM) and the “antitumor activity ranking among the compositions tested” value was “greatest antitumor activity of the compositions tested”. For the same molecule, the “cytotoxic in vitro against P-388 murine leukemia cells” value was “cytotoxic”.

Source: US4731377A, “Antitumor cyclic peroxides” (Harbor Branch Oceanographic Institute, Inc., priority 1986, dated 1988)
